Test results: patent US12156873B2, “Composition for treating ocular hyperemia and a method for treating ocular hyperemia with the same” (ADS Therapeutics LLC, priority 2018, dated 2024)

Key:
Assay type in all cases: in vivo
[1] = test system: Ocular hyperemia patients; assay: Ocular hyperemia patients treated topically with emulsion formulations BID for 2 weeks, hyperemia graded from eye pictures
Protocol: Ocular hyperemia patients with hyperemia grade >2 (0-4, five-point scale; 0 being clear of hyperemia and 4 being of severe hyperemia) are selected for treatment with 4 emulsion formulations. Each group has about 20 patients. The patients are assigned to the groups in a way to make sure the base line average grade is similar among the groups. The formulations are dosed twice a day (BID) for 2 weeks and the patients are further followed up for 4 weeks. The formulations are administered topically by a physician on the day of visits or by the patient between visits. Patients are evaluated on day 1, week 1, and 2, before and after dosing. After the stop of dosing, patients are further followed up at 4 and 6 weeks.
The effect on ocular hyperemia is evaluated by taking pictures of the eye. […] The tolerability of the formulations is also evaluated with standard eye examinations commonly used for such assessment. The efficacy and tolerability data are analyzed by independent statisticians.

[2] = test system: pterygium patients; assay: Phase 2a clinical trial stage 2: 0.2% nintedanib eye drop vs vehicle, 28 days TID, pterygium vascularity graded from photographs
Protocol: (§1) Nintedanib was formulated into an eye drop and tested in pterygium patients in a Phase 2a clinical trial to evaluate the safety and efficacy of nintedanib. The key efficacy endpoint is effects on pterygium vascularity.
In stage 2, the safety, tolerability and efficacy of the 0.2% formulation were evaluated in a randomized, double-masked, vehicle-controlled, parallel study with 28 days TID repeat ocular dosing of vehicle and 0.2% nintedanib. The patients were further followed up by 20 weeks of post-dosing observation. Ophthalmic and physical examinations were performed at screening, Day 1 and Week 2, 4, 8, 16, and 24. External photograph of the pterygium eye was taken using a digital camera and the pterygium vascularity was graded from these images at an independent image reading center. The primary objective is to evaluate ocular and systemic safety of nintedanib in pterygium patients that have moderate to severe pterygium vascularity. The secondary objective is to assess whether the formulation is efficacious in reducing pterygium vascularity.
A total of 50 patients were enrolled and randomized in a 1:1 treatment allocation to receive either nintedanib or vehicle. The final analysis was performed after study completion. The O'Brien-Fleming group-sequential method was used for a multiple-comparison adjustment of p-values for efficacy. For the final analysis, a 2-sided test with p-value ≤0.048 is considered statistically significant for all between and within treatment comparisons.

[3] = test system: pterygium patients; assay: Phase 2a clinical trial stage 1: single dose escalating safety, tolerability and pharmacokinetics study; conditions: single dose 0.02%, 0.05%, 0.2% eye drop
Protocol: as §1
The clinic trial was conducted in two stages. In stage 1, the safety, tolerability and pharmacokinetics were evaluated in a single dose escalating study. Three dose cohorts with 8 patients in each were evaluated. Cohort 1 began at the lowest concentration of 0.02% nintedanib (weight percent based on the total weight of the eye drop), followed by an increasing dose to 0.05% for Cohort 2 and then to 0.2% for Cohort 3.

[4] = Day 1 before dosing (baseline), 0-4 five-point scale, BID topical
[5] = Wee 4 (follow-up, 2 weeks after stop of dosing), 0-4 scale
[6] = Week 6 (follow-up, 4 weeks after stop of dosing), 0-4 scale

Compound: Brc1c(NC2=NCCN2)ccc2nccnc12 [Brimonidine, (5-Bromoquinoxalin-6-yl)-(4,5-dihydro-1H-imidazol-2-yl)-amine]
- Average Hyperemia Grade ([1]; Day 1 2 h post, 0-4 scale): 2
- Average Hyperemia Grade ([1]; Day 1 6 h post, 0-4 scale): 3
- Average Hyperemia Grade [1, 4]: 3
- Average Hyperemia Grade [1, 5]: 3
- Average Hyperemia Grade ([1]; Week 1 2 h post, 0-4 scale): 2
- Average Hyperemia Grade ([1]; Week 1 before, 0-4 scale): 3
- Average Hyperemia Grade ([1]; Week 2 2 h post, 0-4 scale): 2
- Average Hyperemia Grade ([1]; Week 2 before, 0-4 scale): 3
- Average Hyperemia Grade [1, 6]: 3
- duration of effect on hyperemia grade at each of the visits ([1]; after dosing): 2 to 4 h
- hyperemia grade after dosing ([1]; day 1, week 1 and 2): reduced immediately after dosing
- hyperemia grade after stop of treatments ([1]; week 4 and 6): the same as the baseline

Compound: COC(=O)c1ccc2c(c1)NC(=O)/C2=C(\Nc1ccc(N(C)C(=O)CN2CCN(C)CC2)cc1)c1ccccc1 [Nintedanib, (Z)-3-(1-(4-(N-((4-methyl-piperazin-1-yl)-methylcarbonyl)-N-methyl-amino)-phenylamino)-1-phenyl-methylene]-6-methoxycarbonyl-2-indolinone]
- safety and tolerability ([2]; 0.2% eye drop, 28 days TID): excellent with no serious adverse events
- Mean grade Difference, nintedanib vs vehicle (pterygium vascularity) ([2]; Day 1 (baseline)): −0.15
- Mean change from baseline Difference, nintedanib vs vehicle (pterygium vascularity) ([2]; Week 2): −0.72
- Mean grade Difference, nintedanib vs vehicle (pterygium vascularity) ([2]; Week 2): −0.87
- Mean change from baseline Difference, nintedanib vs vehicle (pterygium vascularity) ([2]; Week 4 (end of dosing)): −0.76
- Mean grade Difference, nintedanib vs vehicle (pterygium vascularity) ([2]; Week 4 (end of dosing)): −0.91
- Mean change from baseline Difference, nintedanib vs vehicle (pterygium vascularity) ([2]; Week 8): −0.41
- Mean grade Difference, nintedanib vs vehicle (pterygium vascularity) ([2]; Week 8): −0.53
- Mean change from baseline Difference, nintedanib vs vehicle (pterygium vascularity) ([2]; Week 16): −0.59
- Mean grade Difference, nintedanib vs vehicle (pterygium vascularity) ([2]; Week 16): −0.7
- Mean change from baseline Difference, nintedanib vs vehicle (pterygium vascularity) ([2]; Week 24 (end of study)): −0.17
- Mean grade Difference, nintedanib vs vehicle (pterygium vascularity) ([2]; Week 24 (end of study)): −0.31
- persistence of effect on pterygium vascularity ([2]; after 28 days TID dosing): maintained through Week 16
- effect on pterygium vascularity ([2]; by Week 2): highly significant
- safety [3]: No safety issues were found at all doses
- Average Hyperemia Grade ([1]; Day 1 2 h post, 0-4 scale): 3
- Average Hyperemia Grade ([1]; Day 1 6 h post, 0-4 scale): 3
- Average Hyperemia Grade [1, 4]: 3
- Average Hyperemia Grade [1, 5]: 2.5
- Average Hyperemia Grade ([1]; Week 1 2 h post, 0-4 scale): 2
- Average Hyperemia Grade ([1]; Week 1 before, 0-4 scale): 2
- Average Hyperemia Grade ([1]; Week 2 2 h post, 0-4 scale): 2
- Average Hyperemia Grade ([1]; Week 2 before, 0-4 scale): 2
- Average Hyperemia Grade [1, 6]: 3
- time the grade reduction remained significant after the stop of dosing ([1]; after 2 weeks BID dosing): 2 weeks
- hyperemia grade, drug effect on day 1 ([1]; day 1, comparing to the baseline): did not change significantly
- hyperemia grade reduction from baseline ([1]; week 1 and 2): about 1 grade
